Data on eight molecules can be found in PubChem BioAssay (NCI).

Several values for one entry are separate records, joined by “and”; a condition that tells them apart may be missing. Equal entries are not always repeated.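 Assay format: 96-well plates, 48-hour exposure. GI50 marks 50% less growth. At the TGI there is no net growth.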 *1 amine or outer side, *2 acyl side, *3 side chain or, on linkers, in order; H or OH if unused. Where a SMILES comes first, the peptide text is derived from it. [ ]: non-standard residue; d: D form. X56 = CC[C@H](C)[C@H](OC(=O)[C@@H](C)[C@@H](CC)N[*:1])C(=O)[*:2]; X32 = C[C@H](N[*:1])C(=O)C(C)(C)C(=O)[*:2]; NMeY = CN[C@@H](Cc1ccc(O)cc1)C(=O)O; NMeL = CN[C@@H](CC(C)C)C(=O)O; NMeV = CN[C@H](C(=O)O)C(C)C

What all share (assay): growth of human tumour cells (NCI), 48 h
Experiment [1] has as its system RPMI-8226 leukemia.
The test system of experiment [2] is CCRF-CEM leukemia.
Experiment [3] relates to PC-3 prostate.
For experiment [4], the system named is SK-MEL-28 melanoma.
In experiment [5] the test system is MCF7 breast.
Experiment [6] concerns TK-10 renal.
In experiment [7] the test system is UO-31 renal.
The subject of experiment [8] is 786-0 renal.
In experiment [9] the test system is RXF 393 renal.
For experiment [10], the system named is U251 CNS.

`COc1cc2c(cc1OCCCCOc1ccc(-c3nc4ccccc4s3)cc1)N=C[C@@H]1CCCN1C2=O`: the GI50 in experiment [1] was 0.337 µM; in [2], 0.456 µM; in experiment [3], 0.63 µM; in [4] it was 2.18 µM; in [5] it was 0.625 µM; in experiment [6], 1.21 µM. Also, the GI50 was 0.581 µM in experiment [7], 0.58 µM in experiment [8], 0.19 µM in [9] and 0.534 µM in experiment [10]. Besides, the TGI was found to be 1.42 µM in experiment [1]; 2.38 µM in [2]; 2.11 µM in experiment [3]; 4.95 µM in experiment [4]; 4.34 µM in [5]; 5.17 µM in experiment [6]. The TGI in experiment [7] came to 2.43 µM; in experiment [8], 1.16 µM; in [9], 0.443 µM; in [10], 1.85 µM.

Turning to `CC[C@H](C)[C@@H]1OC(=O)[C@@H](C)[C@@H](CC)NC(=O)[C@H](C)NC(=O)C(C)(C)C(=O)[C@H](C)NC(=O)[C@H](Cc2ccc(OC)cc2)N(C)C(=O)[C@H](C(C)C)N(C)C(=O)CNC(=O)[C@H](CC(C)C)N(C)C(=O)CNC1=O` (cyclo(A[X56]G[NMeL]G[NMeV][NMeY](Me)[X32])), the GI50 in experiment [1] is 0.0263 µM; in [2], less than 0.0152 µM; in [4] it was 0.0727 µM and < 0.0164 µM; in [6], 0.0196 µM; in [8], 0.0675 µM; in [9], 0.0274 µM. Moreover, the TGI in experiment [1] is 3.38 µM; in [3], 6.85 µM; in [4] it was 0.165 µM; in experiment [5] it was 1.26 µM; in experiment [6], 0.299 µM and 0.0735 µM; in experiment [7], 0.383 µM and 0.428 µM. In addition, the TGI in [8] was 0.48 µM and 0.233 µM; in experiment [9], 0.0483 µM and 0.104 µM; in experiment [10], 1.08 µM and 0.15 µM.

`O=C1NN(c2ccccc2)C(=O)/C1=C/c1ccc(Br)o1`: the GI50 in [1] is 0.777 µM; in experiment [2], 5.23 µM; in [3], 6.9 µM; in [4], 7.03 µM; in experiment [5], 3.54 µM; in experiment [6] it was 13.2 µM. For the same molecule, the GI50 in [7] is 8.8 µM; in experiment [8], 19.8 µM; in experiment [9], 1.02 µM; in experiment [10] it was 1.57 µM. In addition, the TGI was 10.9 µM in [1]; 19.8 µM in [2]; 26.3 µM in experiment [3]; 29.8 µM in [4]; 18.9 µM in [5]; 33.7 µM in [6]. Further, the TGI was greater than 64.1 µM in [7], 53.2 µM in [8], 2.04 µM in experiment [9] and 19.8 µM in experiment [10].

For `C[C@H](N)C(=O)N1C[C@H](CCCB(O)O)[C@](N)(C(=O)O)C1`, the GI50 in experiment [1], in [2], in experiment [3], in [4], in [5] and in [6] was greater than 100 µM each time. For the same molecule, the GI50 in experiment [7], in experiment [8], in experiment [9] and in [10] was greater than 100 µM each time. Further, the TGI in [1], in experiment [2], in experiment [3], in [4], in experiment [5] and in experiment [6] was greater than 100 µM each time. Also, the TGI in experiment [7], in [8], in [9] and in [10] was greater than 100 µM throughout.

Take `NC1CCC(N[C@@H]2C[C@H]2c2ccccc2)CC1` (stereo not given in full): the GI50 in experiment [1] is 41.8 µM; in [2], 82.8 µM; in [3], 70.8 µM; in experiment [4], greater than 100 µM; in [5], greater than 100 µM; in [6], greater than 100 µM. For the same molecule, the GI50 was 67.4 µM in [7], greater than 100 µM in experiment [8], 59.2 µM in experiment [9] and greater than 100 µM in [10]. For the same molecule, the TGI in experiment [1], in [2], in [3], in experiment [4], in experiment [5] and in [6] was greater than 100 µM each time. Also, the TGI in [7], in experiment [8], in [9] and in experiment [10] was greater than 100 µM each time.

On to `O=C(Nc1ccccc1)Nc1cccc(Oc2nnc(Cl)c3ccccc23)c1`, for which the GI50 in [1] is 4.45 µM; in experiment [2] it was 4.44 µM; in experiment [3], 3.26 µM; in experiment [4] it was 3.57 µM; in experiment [5], 1.32 µM; in experiment [6] it was 6.08 µM. Further, the GI50 in [7] is 3.98 µM; in experiment [8], 3.6 µM; in experiment [9], 2.69 µM; in experiment [10] it was 2.14 µM. Besides, the TGI in experiment [1] was 24.3 µM; in experiment [2], greater than 25 µM; in experiment [3], 10.6 µM; in experiment [4], 12.7 µM; in [5], 6.32 µM; in experiment [6] it was 14.9 µM. Further, the TGI in experiment [7] turned out to be 19.6 µM; in experiment [8], 8.18 µM; in experiment [9], 6.24 µM; in experiment [10], 5.2 µM.

Take `CC1(C)CC(Nc2ccc(Nc3ccccc3)cc2)CC(C)(C)N1`: the TGI in [1] stood at 37.3 µM; in experiment [2], 29.9 µM; in [3], 32.3 µM; in experiment [4] it was 33.8 µM; in [5], 33.5 µM; in experiment [6] it was 48.5 µM. Also, the TGI worked out at 24.6 µM in experiment [7], 49.2 µM in [8], 47.5 µM in [9] and 40.1 µM in experiment [10].

`CC(C)c1ccc(NC(=S)NC(=O)c2ccccc2)cc1`: the TGI in experiment [1] is greater than 100 µM; in experiment [2], 49.6 µM; in experiment [3], greater than 100 µM; in experiment [4], 48.3 µM; in experiment [5], 48.8 µM; in experiment [6], 50.1 µM. Moreover, the TGI in experiment [7] amounted to 32.7 µM; in experiment [8] it was 46.4 µM; in experiment [9] it was 44.9 µM; in [10], 80.1 µM.
